Experimental findings from patent US20250340538A1, “IMIDAZOLONE DERIVATIVES AS INHIBITORS OF PROTEIN KINASES IN PARTICULAR DYRK1A, CLK1 AND/OR CLK4” (PERHA PHARMACEUTICALS, priority 2021, published 2025) are described below.

Each structure is given as a SMILES string.

In one experiment the target is T1, CLK1 (Homo sapiens, UniProt P49759).
T1 construct: GST-fusion or His-tag (not specified per kinase); purchased ProQinase GmbH; host or cells: Sf9 insect cells or E. coli (not specified per kinase)
T1 sequence (P49759 whole entry, the tested form may be a part): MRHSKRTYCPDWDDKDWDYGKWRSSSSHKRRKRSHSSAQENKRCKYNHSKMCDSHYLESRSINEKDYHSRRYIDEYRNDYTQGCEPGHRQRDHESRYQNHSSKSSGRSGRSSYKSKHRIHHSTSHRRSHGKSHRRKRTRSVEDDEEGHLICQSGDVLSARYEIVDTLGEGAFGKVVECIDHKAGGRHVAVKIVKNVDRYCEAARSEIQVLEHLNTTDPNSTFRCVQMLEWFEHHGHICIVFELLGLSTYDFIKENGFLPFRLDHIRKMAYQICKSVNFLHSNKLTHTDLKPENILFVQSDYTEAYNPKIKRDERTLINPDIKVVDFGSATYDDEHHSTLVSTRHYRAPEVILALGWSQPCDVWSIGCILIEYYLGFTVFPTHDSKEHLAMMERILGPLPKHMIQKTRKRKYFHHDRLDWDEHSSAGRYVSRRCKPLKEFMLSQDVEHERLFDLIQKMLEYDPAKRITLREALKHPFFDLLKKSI
Briefly: Radiometric protein kinase assay (33PanQinase Activity Assay), CLK1. It is filed as biochemical. The conditions noted are these: class by IC50 on CLK1, from dose-response curves; read-out: Potency Class CLK1. On the procedure:
Assays were performed by ProQinase GmbH (Engesserstr. 4, D-79108 Freiburg, Germany. www.proqinase.com). The IC50 profile of all compounds was determined using 12 protein kinases (CDK2/cyclin E, CK1ε, CLK1, 2, 3, 4, DYRK1A, 1B, 2, 3, 4, GSK3β).
(§1) The compounds were provided as […] in 100% DMSO. Prior to testing, the 1 μM stock solutions were subjected to a serial, semi-logarithmic dilution using 100% DMSO as a solvent. […] In the process, 90 μl H2O were added to each well of each compound dilution plate. To minimize potential precipitation, the H2O was added to each plate only a few minutes before the transfer of the compound solutions into the assay plates. The plate was shaken thoroughly, resulting in a compound dilution plate/10% DMSO.
(§2) For the assays (see below), 5 μL solution from each well of the compound dilution plates/10% DMSO were transferred into the assay plates. The final volume of the assay was 50 μL. All compounds were tested at 10 final assay concentrations in the range from 10 μM to 30 nM. The final DMSO concentration in the reaction cocktails was 1% in all cases.
(§3) All protein kinases provided by ProQinase were expressed in Sf9 insect cells or in E. coli as recombinant GST-fusion proteins or His-tagged proteins, either as full-length or enzymatically active fragments. All kinases were produced from human cDNAs and purified by either GSH-affinity chromatography or immobilized metal. Affinity tags were removed from a number of kinases during purification. The purity of the protein kinases was examined by SDS-PAGE/Coomassie staining, the identity was checked by mass spectroscopy.
(§4) A radiometric protein kinase assay (33PanQinase® Activity Assay) was used for measuring the kinase activity of the 12 protein kinases. All kinase assays were performed in 96-well FlashPlates™ from PerkinElmer (Boston, MA, USA) in a 50 μL reaction volume. The reaction cocktail was pipetted in four steps in the following order: • 25 μL of assay buffer (standard buffer/[γ-^33P]-ATP), • 10 μL of ATP solution (in H2O), • 5 μL of test compound (in 10% DMSO), • 10 μL of enzyme/substrate mixture.
(§5) The reaction cocktails were incubated at 30° C. for 60 minutes. The reaction was stopped with 50 μL of 2% (v/v) H3PO4, plates were aspirated and washed two times with 200 μL 0.9% (w/v) NaCl. Incorporation of ^33Pi was determined with a microplate scintillation counter (Microbeta, Wallac). The IC50 values for all compounds were calculated from the dose response curves
As a parameter for assay quality, the Z′-factor (Zhang et al., J. Biomol. Screen. 2: 67-73, 1999) for the low and high controls of each assay plate (n=8) was used. ProQinase's criterion for repetition of an assay plate is a Z′-factor below 0.4 (Iversen et al., J. Biomol. Screen. 3: 247-252, 2006).

Another experiment addresses T2, DYRK1A (Homo sapiens, UniProt Q13627).
T2 construct: GST-fusion or His-tag (not specified per kinase); purchased ProQinase GmbH; host or cells: Sf9 insect cells or E. coli (not specified per kinase)
Briefly: Radiometric protein kinase assay (33PanQinase Activity Assay), DYRK1A. It is filed as biochemical. The note with it: for IC50: class by IC50 on DYRK1A, from dose-response curves, read-out: Potency Class DYRK1A; for Selectivity Class DYRK1A vs. CLK1: ratio of IC50 on CLK1 over IC50 on DYRK1A; for Selectivity Class DYRK1A vs. DYRK1B: ratio of IC50 on DYRK1B over IC50 on DYRK1A. On the procedure: The IC50 profile of all compounds was determined using 12 protein kinases (CDK2/cyclin E, CK1ε, CLK1, 2, 3, 4, DYRK1A, 1B, 2, 3, 4, GSK3β).
as §1, §2, §3, §4, §5

For `CO[C@@H]1CCC[C@H]1NC1=N/C(=C\c2ccc3nccnc3c2)C(=O)N1` [Compound 4, (4Z)-2-[[(1R,2R)-2-methoxycyclopentyl]amino]-4-(quinoxalin-6-ylmethylene)-1H-imidazol-5-one], the IC50 at CLK1 was more than 50 nM. In addition, on DYRK1A, the IC50 was more than 50 nM; the “Selectivity Class DYRK1A vs. CLK1” value is “II (ratio between 2 and 10 fold)”; the “Selectivity Class DYRK1A vs. DYRK1B” value is “II (ratio between 2 and 10 fold)”.

Regarding `O=C1NC(NCc2ccccc2)=N/C1=C\c1ccc2cnccc2c1` [Compound 62, (4Z)-2-(benzylamino)-4-(6-isoquinolylmethylene)-1H-imidazol-5-one], on CLK1, the IC50 is more than 50 nM. At DYRK1A, the IC50 is more than 50 nM; the “Selectivity Class DYRK1A vs. CLK1” value is recorded as “V (ratio >0.1 fold (most CLK1- or DYRK1B-selective compounds))”; the “Selectivity Class DYRK1A vs. DYRK1B” value is “IV (ratio between 0.1 and 0.5 fold)”.

`O=C1NC(N[C@@H]2CCOC2)=N/C1=C\c1ccc2nccnc2c1` [Compound 37, (4Z)-4-(quinoxalin-6-ylmethylene)-2-[[(3R)-tetrahydrofuran-3-yl]amino]-1H-imidazol-5-one]: the IC50 on CLK1 is more than 50 nM. For the same compound, at DYRK1A, the IC50 was more than 50 nM; the “Selectivity Class DYRK1A vs. CLK1” value is “III (ratio between 0.5 and 2 fold)”; the “Selectivity Class DYRK1A vs. DYRK1B” value is “II (ratio between 2 and 10 fold)”.

For the compound `O=C1NC(NC2CCCCC2)=N/C1=C\c1ccc2nccnc2c1` [Compound 74, (4Z)-2-(Cyclohexylamino)-4-(quinoxalin-6-ylmethylene)-1H-imidazol-5-one], the IC50 on CLK1 was more than 50 nM.

Turning to `O=C1NC(N[C@H](CO)c2ccccc2)=N/C1=C\c1ccc2nccnc2c1` [Compound 25, (4Z)-2-[[(1S)-2-Hydroxy-1-phenyl-ethyl]amino]-4-(quinoxalin-6-ylmethylene)-1H-imidazol-5-one], the IC50 at CLK1 is more than 50 nM.

For `O=C1NC(N[C@@H]2CCC[C@@H](O)CC2)=N/C1=C\c1ccc2nccnc2c1` (racemic) [Compound 6, (±)-(4Z)-2-[[trans-4-hydroxycycloheptyl]amino]-4-(quinoxalin-6-ylmethylene)-1H-imidazol-5-one], the IC50 on CLK1 is more than 50 nM.

With `O=C1NC(NC2CCCCCCC2)=N/C1=C\c1ccc2nccnc2c1` [Compound 2, (4Z)-2-(cyclooctylamino)-4-(quinoxalin-6-ylmethylene)-1H-imidazol-5-one], at CLK1, the IC50 was more than 50 nM.

`CC(C)C[C@H](COCc1ccc(F)cc1)NC1=N/C(=C\c2ccc3nccnc3c2)C(=O)N1` [Compound 13, (4Z)-2-[[(1R)-1-[(4-fluorophenyl)methoxymethyl]-3-methyl-butyl]amino]-4-(quinoxalin-6-ylmethylene)-1H-imidazol-5-one]: the IC50 on CLK1 was more than 50 nM.

As for `O=C1NC(N[C@@H](CO)c2ccccc2)=N/C1=C\c1ccc2nccnc2c1` [Compound 24, (4Z)-2-[[(1R)-2-hydroxy-1-phenyl-ethyl]amino]-4-(quinoxalin-6-ylmethylene)-1H-imidazol-5-one], at CLK1, the IC50 fell in the range of 25 to 50 nM.

As to `O=C1NC(NC2CCCCCC2)=N/C1=C\c1ccc2nccnc2c1` [Compound 1, (4Z)-2-(cycloheptylamino)-4-(quinoxalin-6-ylmethylene)-1H-imidazol-5-one], on CLK1, the IC50 is more than 50 nM.

As for `COC[C@@H](CC(C)C)NC1=N/C(=C\c2ccc3nccnc3c2)C(=O)N1` [Compound 10, (4Z)-2-[[(1R)-1-(methoxymethyl)-3-methyl-butyl]amino]-4-(quinoxalin-6-ylmethylene)-1H-imidazol-5-one], the IC50 at CLK1 was more than 50 nM.

In the case of `CO[C@H]1CCCC[C@@H](NC2=N/C(=C\c3ccc4nccnc4c3)C(=O)N2)C1` (racemic) [Compound 8, (+)-(4Z)-2-[[cis-3-methoxycycloheptyl]amino]-4-(quinoxalin-6-ylmethylene)-1H-imidazol-5-one], on CLK1, the IC50 is more than 50 nM.
